The values that follow come from ChEMBL document CHEMBL3352081, “Wnt/β-Catenin Signaling Pathway Inhibitors: A Promising Cancer Therapy” (ACS Med Chem Lett, 2014).

pIC50: −log10 of the molar value.

The test system of this assay is HT-29. Description: Inhibition of Wnt pathway in human HT29 cells after 24 hrs by TCF-driven luciferase reporter gene assay. Conditions: HT-29, 24 h. The assay is classed as cell-based. On the technique in general: A reporter such as luciferase makes a cellular process visible.
`O=C(Nc1ccccc1F)C1CCN(c2ccnc3nsnc23)CC1` showed a pIC50 above 5.30.

The compound `O=C(Nc1ccc(C(F)(F)F)cn1)C1CCN(c2ccnc3nsnc23)CC1` showed a pIC50 above 7.30.

`Cc1ccccc1CNC(=O)C1CCN(c2ccnc3nsnc23)CC1`: the pIC50 was above 7.00.

On to `c1ccc(N2C[C@@H]3C[C@H]2CN3c2ccnc3nsnc23)cc1`, for which the pIC50 was above 7.30.

`O=C(Nc1cc2ccccc2cn1)C1CCN(c2ccnc3nsnc23)CC1` gave a pIC50 above 6.30.

`c1ccc(N2C[C@@H]3C[C@H]2CN3c2ncnc3nsnc23)nc1` had a pIC50 above 6.00.

By pIC50 is commonly meant the negative decadic logarithm of the IC50, by convention in mol/L. A lower pIC50 goes with a high IC50.
